The record followed here is US12116343B2, “Inhibitors of APOL1 and methods of using same” (Vertex Pharmaceuticals Incorporated, priority 2020, dated 2024).

Like-named read-outs stand apart in the source and are kept apart here.

The assay deals with T1, APOL1 G1 Protein (Homo sapiens, UniProt O14791, I384M/S342G).
T1 sequence (O14791 28-398 S342G/I384M): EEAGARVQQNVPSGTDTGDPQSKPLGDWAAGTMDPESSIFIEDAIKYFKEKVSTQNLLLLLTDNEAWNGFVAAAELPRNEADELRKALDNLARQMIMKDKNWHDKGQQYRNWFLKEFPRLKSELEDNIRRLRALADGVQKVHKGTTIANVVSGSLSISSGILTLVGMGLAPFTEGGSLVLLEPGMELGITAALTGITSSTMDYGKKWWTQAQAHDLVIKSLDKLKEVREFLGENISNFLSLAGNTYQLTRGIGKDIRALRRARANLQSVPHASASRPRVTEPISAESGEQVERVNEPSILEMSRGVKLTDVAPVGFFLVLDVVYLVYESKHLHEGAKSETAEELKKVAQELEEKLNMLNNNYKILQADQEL
Nature of the assay: Trypanosoma brucei brucei lysis assay using APOL1 recombinant protein (AlamarBlue viability). The format is cell-based. The following applies: Trypanosoma brucei brucei lysis, recombinant APOL1, AlamarBlue. The essentials:
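Bloodstream-form T. b. brucei Lister 427 VSG 221, 120,000 parasites/well in phenol red-free, FBS-free medium, lysed by recombinant APOL1 G1 with compound (10-point dose response, 0.1% DMSO final). Viability read by AlamarBlue fluorescence against a parasite standard curve.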
For orientation: Resazurin is reduced to fluorescent resorufin, in cell work by metabolically active cells.

The mark [1] stands for this setting: read-out: Trypanosoma Assay (IC50).

For orientation: IC50 means the concentration that inhibits the measured activity by half. With `CN(C)C(=O)CN(C)C(=O)[C@H]1C[C@H](c2c(-c3ccc(F)cc3)[nH]c3c(F)cc(F)cc32)C1` [Compound 62], the IC50 under setting [1] was more than 1000 nM.

`CCOCC1(CNC(=O)[C@H]2C[C@H](c3c(-c4ccc(F)cc4)[nH]c4c(F)cc(F)cc43)C2)CC1` [Compound 55]: the IC50 under setting [1] is more than 1000 nM. Still for that read-out and setting: under `CC(NC(=O)[C@H]1C[C@H](c2c(-c3ccc(F)cc3)[nH]c3c(F)cc(F)cc32)C1)C(N)=O` (mixture of isomers) [Compound 68] stands 250 to 1000 nM. Regarding `O=C([C@H]1C[C@H](c2c(-c3ccc(F)cc3)[nH]c3c(F)cc(F)cc32)C1)N1CCC(O)(O)CC1` [Compound 127], under “Trypanosoma Assay (IC50)”, the IC50 is 250 to 1000 nM. Turning to `COCC1(CNC(=O)[C@H]2C[C@H](c3c(-c4ccc(F)cc4)[nH]c4c(F)cc(F)cc43)C2)CC1` [Compound 53], under setting [1], the concentration for half-maximal inhibition (IC50) was more than 1000 nM.
